The NIST ThermoML archive (doi:10.1021/je8001442)

Assay: excess molar enthalpy (molar enthalpy of mixing); xn = mol fraction of the nth substance listed
Settings: Fluid (supercritical or subcritical phases), Flow calorimetry

CC(C)OC(C)C [diisopropyl ether] + O=C=O
excess molar enthalpy [kcal/mol]
Settings | 298.15 K | 303.15 K | 308.15 K
5000 kPa, x2 = 0.1255 | -0.279 | -0.251 | -0.293
5000 kPa, x2 = 0.2326 | -0.527 | -0.526 | -0.53
5000 kPa, x2 = 0.3249 | -0.734 | -0.741 | -0.745
5000 kPa, x2 = 0.4054 | -0.913 | -0.922 | -0.924
5000 kPa, x2 = 0.4762 | -1.07 | -1.08 | -1.09
5000 kPa, x2 = 0.5389 | -1.2 | -1.22 | -1.22
5000 kPa, x2 = 0.5949 | -1.33 | -1.35 | -1.34
5000 kPa, x2 = 0.6452 | -1.45 | -1.46 | -1.45
5000 kPa, x2 = 0.6906 | -1.55 | -1.55 | -1.55
5000 kPa, x2 = 0.7317 | -1.62 | -1.64 | –
5000 kPa, x2 = 0.7692 | -1.71 | – | –
5000 kPa, x2 = 0.8036 | -1.79 | – | –
5000 kPa, x2 = 0.8351 | -1.85 | – | –
5500 kPa, x2 = 0.1263 | -0.277 | -0.278 | -0.275
5500 kPa, x2 = 0.2338 | -0.496 | -0.505 | -0.525
5500 kPa, x2 = 0.3265 | -0.682 | -0.715 | -0.709
5500 kPa, x2 = 0.4071 | -0.861 | -0.881 | -0.891
5500 kPa, x2 = 0.478 | -0.991 | -1.03 | -1.04
5500 kPa, x2 = 0.5407 | -1.13 | -1.16 | -1.18
5500 kPa, x2 = 0.5966 | -1.25 | -1.28 | -1.29
5500 kPa, x2 = 0.6468 | -1.34 | -1.38 | -1.4
5500 kPa, x2 = 0.6921 | -1.45 | -1.48 | -1.49
5500 kPa, x2 = 0.7331 | -1.52 | -1.56 | -1.57
5500 kPa, x2 = 0.7705 | -1.61 | -1.64 | –
5500 kPa, x2 = 0.8047 | -1.67 | -1.69 | –
5500 kPa, x2 = 0.8361 | -1.74 | – | –
5500 kPa, x2 = 0.865 | -1.78 | – | –
5500 kPa, x2 = 0.8918 | -1.82 | – | –
5500 kPa, x2 = 0.9019 | -1.83 | – | –
6000 kPa, x2 = 0.127 | -0.232 | -0.255 | -0.277
6000 kPa, x2 = 0.235 | -0.442 | -0.479 | -0.494
6000 kPa, x2 = 0.3279 | -0.621 | -0.675 | -0.693
6000 kPa, x2 = 0.4087 | -0.761 | -0.839 | -0.853
6000 kPa, x2 = 0.4796 | -0.89 | -0.973 | -1.02
6000 kPa, x2 = 0.5423 | -1.01 | -1.09 | -1.12
6000 kPa, x2 = 0.5982 | -1.09 | -1.21 | -1.22
6000 kPa, x2 = 0.6483 | -1.19 | -1.32 | -1.34
6000 kPa, x2 = 0.6934 | -1.27 | -1.4 | -1.42
6000 kPa, x2 = 0.7344 | -1.33 | -1.48 | -1.49
6000 kPa, x2 = 0.7716 | -1.4 | -1.54 | -1.56
6000 kPa, x2 = 0.8057 | -1.48 | -1.6 | -1.61
6000 kPa, x2 = 0.8248 | – | – | -1.64
6000 kPa, x2 = 0.837 | -1.52 | -1.66 | –
6000 kPa, x2 = 0.8658 | -1.59 | -1.7 | –
6000 kPa, x2 = 0.8924 | -1.63 | -1.71 | –
6000 kPa, x2 = 0.9171 | -1.65 | – | –
6000 kPa, x2 = 0.931 | -1.63 | – | –
6000 kPa, x2 = 0.94 | -1.67 | – | –
6000 kPa, x2 = 0.9614 | -1.64 | – | –
6000 kPa, x2 = 0.9813 | -1.48 | – | –
6500 kPa, x2 = 0.1277 | – | – | -0.254
6500 kPa, x2 = 0.2361 | – | – | -0.464
6500 kPa, x2 = 0.3292 | – | – | -0.638
6500 kPa, x2 = 0.4101 | – | – | -0.787
6500 kPa, x2 = 0.4811 | – | – | -0.92
6500 kPa, x2 = 0.5438 | – | – | -1.04
6500 kPa, x2 = 0.5996 | – | – | -1.14
6500 kPa, x2 = 0.6496 | – | – | -1.24
6500 kPa, x2 = 0.6947 | – | – | -1.33
6500 kPa, x2 = 0.7355 | – | – | -1.39
6500 kPa, x2 = 0.7727 | – | – | -1.45
6500 kPa, x2 = 0.8066 | – | – | -1.5
6500 kPa, x2 = 0.8378 | – | – | -1.56
6500 kPa, x2 = 0.8665 | – | – | -1.6
7000 kPa, x2 = 0.1283 | – | – | -0.232
7000 kPa, x2 = 0.237 | – | – | -0.421
7000 kPa, x2 = 0.3304 | – | – | -0.587
7000 kPa, x2 = 0.4114 | – | – | -0.728
7000 kPa, x2 = 0.4824 | – | – | -0.857
7000 kPa, x2 = 0.5451 | – | – | -0.95
7000 kPa, x2 = 0.6009 | – | – | -1.05
7000 kPa, x2 = 0.6509 | – | – | -1.13
7000 kPa, x2 = 0.6958 | – | – | -1.21
7000 kPa, x2 = 0.7366 | – | – | -1.26
7000 kPa, x2 = 0.7736 | – | – | -1.33
7000 kPa, x2 = 0.8075 | – | – | -1.38
7000 kPa, x2 = 0.8385 | – | – | -1.42
7000 kPa, x2 = 0.8671 | – | – | -1.44
7000 kPa, x2 = 0.8935 | – | – | -1.46
7000 kPa, x2 = 0.9179 | – | – | -1.47
7500 kPa, x2 = 0.1289 | – | – | -0.2
7500 kPa, x2 = 0.238 | – | – | -0.356
7500 kPa, x2 = 0.3315 | – | – | -0.488
7500 kPa, x2 = 0.4127 | – | – | -0.625
7500 kPa, x2 = 0.4837 | – | – | -0.727
7500 kPa, x2 = 0.5464 | – | – | -0.819
7500 kPa, x2 = 0.6021 | – | – | -0.904
7500 kPa, x2 = 0.652 | – | – | -0.973
7500 kPa, x2 = 0.6969 | – | – | -1.04
7500 kPa, x2 = 0.7376 | – | – | -1.1
7500 kPa, x2 = 0.7745 | – | – | -1.15
7500 kPa, x2 = 0.8083 | – | – | -1.19
7500 kPa, x2 = 0.8392 | – | – | -1.24
7500 kPa, x2 = 0.8677 | – | – | -1.25
7500 kPa, x2 = 0.894 | – | – | -1.28
7500 kPa, x2 = 0.9183 | – | – | -1.26
7500 kPa, x2 = 0.9409 | – | – | -1.24
7500 kPa, x2 = 0.962 | – | – | -1.17
